According to PubChem BioAssay (NCI):
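Compound exposure: 48 hours, 5 concentrations, 96-well plates. Here, GI50 denotes the concentration required for 50% inhibition of growth. The concentration for full growth arrest is given as TGI.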

Columns and labels:
Assay in all cases: growth of human tumour cells (NCI), 48 h
[1] = test system: OVCAR-3 ovarian
[2] = test system: NCI-H226 lung
[3] = test system: SW-620 colon
[4] = test system: ACHN renal
[5] = test system: LOX IMVI melanoma
[6] = test system: HCT-15 colon
[7] = test system: NCI-H23 lung
[8] = test system: RPMI-8226 leukemia
[9] = test system: DU-145 prostate
[10] = test system: SN12C renal

SMILES | TGI [1] [µM] | TGI [2] [µM] | TGI [3] [µM] | TGI [4] [µM] | TGI [5] [µM] | TGI [6] [µM] | TGI [7] [µM] | TGI [8] [µM] | TGI [9] [µM] | TGI [10] [µM] | GI50 [1] [nM] | GI50 [3] [nM] | GI50 [4] [nM] | GI50 [5] [nM] | GI50 [6] [nM] | GI50 [7] [nM] | GI50 [8] [nM] | GI50 [10] [nM] | GI50 [9] [nM]
O=C(O)CC(NC(=O)Nc1ccc([N+](=O)[O-])cc1)C(=O)Nc1ccc([N+](=O)[O-])cc1 (centres undefined) | > 100 | > 100 | > 100 | > 100 | > 100 | > 100 | > 100 | > 100 | > 100 |  |  |  |  |  |  |  |  |  | 
CC(C)OC(=O)c1ccc(NCC2=CC(=O)C=CC2=O)cc1Cl | > 45.9 | > 62.6 | > 53.5 | 16 | 35.6 | 18.6 | 33.1 |  | 42.3 | 44.3 |  |  |  |  |  |  |  |  | 
O=C1C=Cc2c(Cl)sc(Cl)c21 |  | 16.1 |  | 3.16 | 1.89 | 3.14 | 5.68 | 4.02 | 5.29 | > 100 |  |  |  |  |  |  |  |  | 
CN(C)N=Nc1ccc([N+](=O)[O-])cc1C(N)=O | > 100 | > 100 | > 100 |  | > 100 | > 100 | > 100 | > 100 |  | > 100 |  |  |  |  |  |  |  |  | 
COc1cc(Oc2nc3ccccc3nc2C(=O)O)cc(OC)c1OC | > 100 | > 100 | > 100 | > 100 | > 100 | > 100 | > 100 | > 100 | > 100 |  |  |  |  |  |  |  |  |  | 
CCNC(=S)N/N=C/c1cc(OC)ccc1O | > 100 | > 100 | > 100 | > 100 | > 100 | > 100 | > 100 |  | > 100 | > 100 |  |  |  |  |  |  |  |  | 
CCCCC/C=C1/CC(CO)(COC(=O)CC(C(C)C)C(C)C)OC1=O (centres undefined) | 32.7 | 24.9 | 50.8 | 24.7 |  | 33.6 | 31.7 |  | 27.8 | 26 |  |  |  |  |  |  |  |  | 
O=[N+]([O-])C(/C(Cl)=C(/Cl)N1CCOCC1)=C1\NCCO1 | > 100 | > 100 | > 100 | > 100 |  | > 100 | > 100 | > 100 | > 100 | > 100 |  |  |  |  |  |  |  |  | 
Cc1cc2c(cc1-c1cc3c(cc1C)C(C(C)C)=C(O)C(=O)/C3=C\Nc1nc(-c3ccccc3)cs1)/C(=C/Nc1nc(-c3ccccc3)cs1)C(=O)C(O)=C2C(C)C | 36 | 58.4 | 29 | 31.2 |  | 58.4 | 28.8 | > 100 | 55 | 48.4 |  |  |  |  |  |  |  |  | 
CC1CN=C(Nc2cccc(C(F)(F)F)c2)S1 (centres undefined) | > 100 | > 100 |  | > 100 | > 100 | > 100 | > 100 | > 100 | > 100 |  |  |  |  |  |  |  |  |  | 
C=CCOc1ccc(C2c3c([nH][nH]c3=O)CC(O)(OCC)C2C(=O)OCC)cc1OC (centres undefined) | > 100 |  | > 100 | > 100 | > 100 | > 100 | > 100 | > 100 | > 100 | > 100 |  |  |  |  |  |  |  |  | 
CN(Cc1c2ccccc2cc2ccccc12)S(=O)(=O)c1ccc(-c2c3nc(c(-c4ccc(S(=O)(=O)N(C)Cc5c6ccccc6cc6ccccc56)cc4)c4ccc([nH]4)c(-c4ccc(S(=O)(=O)N(C)Cc5c6ccccc6cc6ccccc56)cc4)c4nc(c(-c5ccc(S(=O)(=O)N(C)Cc6c7ccccc7cc7ccccc67)cc5)c5ccc2[nH]5)C=C4)C=C3)cc1 | > 100 |  | > 100 | > 100 | > 100 | > 100 | > 100 | > 100 | > 100 | > 100 |  |  |  |  |  |  |  |  | 
Cc1cc(O)c(C(C)C)cc1NC(=O)Nc1cccc2ccccc12 | 40.2 | 46.7 | > 100 | 27.8 | 49.9 | 69.1 | 46.3 |  | 28.3 | 40.5 |  |  |  |  |  |  |  |  | 
CSC1=Nc2ccccc2-c2nc(-c3ccccc3)cc(-c3ccccc3)c2C1 |  | > 100 | > 100 | 41.8 | > 100 | > 100 | 33.5 | > 100 | > 100 | > 100 |  |  |  |  |  |  |  |  | 
O=C1COC(c2ccccc2O)=NN1CCCN1CCCC1 | > 100 | > 100 | > 100 | > 100 |  | > 100 | > 100 | > 100 | > 100 | > 100 |  |  |  |  |  |  |  |  | 
CCSc1ncnc2c(C3OC(CO)C(O)C3O)nsc12 (centres undefined) | > 100 | > 100 | > 100 |  | > 100 | > 100 |  |  | > 100 | > 100 |  |  |  |  |  |  |  |  | 
CCCSc1cc(Cl)c(C)cc1S(=O)(=O)n1ccnc1OCCCN(C)C | > 100 | > 100 | > 100 | > 100 | > 100 | > 100 | > 100 |  | > 100 | > 100 |  |  |  |  |  |  |  |  | 
CC(=O)Nc1ccc(S(=O)(=O)Nc2nnc(S(N)(=O)=O)s2)cc1 |  | > 100 | > 100 | > 100 | > 100 | > 100 | > 100 | > 100 | > 100 |  |  |  |  |  |  |  |  |  | 
CN(C(=O)C12C3C4(C(=O)O)C1(C(=O)N(C)C(C)(C)C)C1C2(C(=O)O)C3(C(=O)N(C)C(C)(C)C)C14C(=O)N(C)C(C)(C)C)C(C)(C)C (centres undefined) | > 100 |  | > 100 | > 100 | > 100 | > 100 | > 100 |  | > 100 | > 100 |  |  |  |  |  |  |  |  | 
C=Nc1ccc([N+](=O)[O-])cc1 | > 100 | > 100 | > 100 | > 100 | > 100 | > 100 | > 100 | > 31.6 |  | > 100 |  |  |  |  |  |  |  |  | 
C(=N\Nc1ncc(-c2cc3cc4c(cc3o2)OCO4)s1)/c1c[nH]c2ccccc12 | 1.89 |  | 3 | 2.61 | 1.7 | 3.25 | 5.19 | > 100 | 3.31 | 3.98 | 536 | 1200 | 860 | 426 | 1140 | 1770 | 1550 | 374 | 739
Nc1ccc2c(c1)C1Oc3ccccc3CC1CO2 (centres undefined) | > 100 | > 100 | > 100 |  | > 100 | 35.6 | > 100 | > 100 | > 100 | > 100 |  |  |  |  |  |  |  |  | 
